Results on one compound are retold here after paper PMC5430895 (Scientific Reports, 2017).

The subject of data set [1] is RASF. As to the kind of experiment: Saracatinib uptake in human RA synovial fibroblasts (HPLC-UV).
Description: The kinetic parameters Km and V max values were estimated by least-square nonlinear regression analysis using GraphPadPrism 5 software.
Unpaired student t-test was used for statistical analysis.
Cells were grown at standard conditions. Synovial fibroblasts (SF) were isolated from tissues of patients with rheumatoid arthritis (RA) (n = 8) obtained during joint replacement surgery after written informed consent was obtained. This procedure was approved by the Ethics Committee of the University of Münster, Germany; all methods were performed in accordance with the relevant guidelines and regulations. […] RA patients met the American College of Rheumatology criteria. Isolated fibroblasts were cultured under standard conditions for a maximum of eight passages. When indicated, RASF were incubated with 10 ng/ml TNFα (PeproTech, Hamburg, Germany). Cell number was evaluated with a CASEYTT cell counter (Roche Innovatis, Reutlingen, Germany).
After incubation, cells were washed with ice-cold PBS and hypoosmotic lysis was induced with 0.1% formic acid. […] The mobile phase consisted of (A) acetonitrile with 0.1% formic acid and (B) 0.1% formic acid and was delivered at 0.3 ml/min in a gradient program. After delivering 100% B for 3 min, a linear gradient to 100% A was applied within 7 min and maintained for 5 min. Thereafter, in order to re-equilibrate the column, a simple isocratic elution step with 100% eluent B was applied for at least 6 min. […] Separation was carried out on an Accucore C18 column equipped with a C18 guard column. The data were acquired by ChromQuest 5.0 chromatography software.
For data set [2], the target named is T1, hOCT1 (Homo sapiens, UniProt O15245).
T1 sequence (O15245 1-554): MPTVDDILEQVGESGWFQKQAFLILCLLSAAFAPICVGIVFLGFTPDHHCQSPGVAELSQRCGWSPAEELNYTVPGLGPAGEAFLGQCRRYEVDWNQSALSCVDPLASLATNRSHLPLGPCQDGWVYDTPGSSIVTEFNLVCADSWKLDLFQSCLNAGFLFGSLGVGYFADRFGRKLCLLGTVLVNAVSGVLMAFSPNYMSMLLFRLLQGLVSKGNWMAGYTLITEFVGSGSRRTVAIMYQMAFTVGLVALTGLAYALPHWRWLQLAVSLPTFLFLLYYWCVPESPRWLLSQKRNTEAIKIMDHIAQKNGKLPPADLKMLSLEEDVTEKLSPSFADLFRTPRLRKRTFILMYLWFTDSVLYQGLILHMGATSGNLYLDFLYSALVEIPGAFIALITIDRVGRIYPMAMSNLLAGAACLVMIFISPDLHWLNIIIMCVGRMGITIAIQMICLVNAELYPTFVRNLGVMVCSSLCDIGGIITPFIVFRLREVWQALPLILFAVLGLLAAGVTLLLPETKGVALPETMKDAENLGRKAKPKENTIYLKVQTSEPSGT
The experiment in a line: Saracatinib uptake in hOCT1-overexpressing HEK293 cells (HPLC-UV). Particulars: hOCT1-HEK293, 10 µM saracatinib, 10 min, difference of accumulation at 4 °C and 37 °C.

In the case of `CN1CCN(CCOc2cc(OC3CCOCC3)c3c(Nc4c(Cl)ccc5c4OCO5)ncnc3c2)CC1` [saracatinib, N-(5-chloro-1,3-benzodioxol-4-yl)-7-[2-(4-methylpiperazin-1-yl)ethoxy]-5-(tetrahydro-2H-pyran-4-yloxy)quinazolin-4-amine], in data set [1] (RASF), the “influence of extracellular pH on saracatinib uptake” value was “pH-dependent”. Further, the “increase of saracatinib uptake versus untreated controls” value in data set [1] (RASF treated for 18 h with TNFα (10 ng/ml)) was found to be 36 ± 5%. The “saracatinib transport capacity (Vmax)” value in data set [1] (RASF, 10 min incubation) turned out to be 71.6 ± 4.1 nmol/mg protein/10 min. In addition, the Km in data set [1] (read-out: Km of saracatinib uptake, RASF, 10 min incubation) was found to be 39.4 ± 9.4 µM. Also, in data set [2], the “saracatinib accumulation (specific uptake)” value was 8.8 ± 0.9 nmol/mg protein.
